Experimental data taken from patent US6852673B2, “Herbicidal pyridine compounds” (BASF Aktiengesellschaft, priority 1998, dated 2005).

Experiments:
Type in all cases: in vivo
[1] = tested on: Hordeum vulgare (HORVW); experiment: Pre-emergence herbicidal evaluation, winter barley
Text: (§1) The pre-emergence herbicidal activity of the compounds of the present invention is exemplified by the following test in which the seeds of a variety of monocotyledonous and dicotyledonous plants are seperately mixed with potting soil and planted on top of approximately one inch of soil in separate pots. After planting, the pots are sprayed with the selected aqueous acetone solution containing test compound in sufficient quantity to provide the equivalent of about 0.0125 to 0.4 kg per hectare of test compound per pot. The treated pots are then placed on greenhouse benches, watered and cared for in accordance with conventional greenhouse procedures. From 2 to 4 weeks after treatment, the tests are terminated and each pot is examined and rated according to the rating system set forth below.

[2] = tested on: Cassia obtusifolia (CASOB); experiment: Pre-emergence herbicidal evaluation, sicklepod
Text: as §1

[3] = tested on: Galium aparine (GALAP); experiment: Pre-emergence herbicidal evaluation, cleaver
Text: as §1

[4] = tested on: Matricaria inodora (MATIN); experiment: Pre-emergence herbicidal evaluation, mayweed
Text: as §1

[5] = tested on: Solanum nigrum (SOLNI); experiment: Pre-emergence herbicidal evaluation, black nightshade
Text: as §1

[6] = tested on: Zea mays (ZEAMX); experiment: Post-emergence herbicidal evaluation, maize; settings: rated 2 to 4 weeks after treatment
Experimental: (§2) [table] [table] […] These acetone solutions are diluted with water and the resulting formulations applied at dosage levels equivalent of about 0.03 to 0.4 kg per hectare of test compound per pot. After spraying the plants are placed on greenhouse benches and are cared for in the usual manner, commensurate with conventional greenhouse practices. From 2 to 4 weeks after treatment, the seedling plants are examined and rated according to the rating system provided above. A rating 0 indicates growth as untreated control, a rating 9 indicates death.

[7] = tested on: Cassia obtusifolia (CASOB); experiment: Post-emergence herbicidal evaluation, sicklepod; settings: rated 2 to 4 weeks after treatment
Experimental: as §2

[8] = tested on: Echinochloa grus galli (ECHCG); experiment: Post-emergence herbicidal evaluation, barnyard grass; settings: rated 2 to 4 weeks after treatment
Experimental: as §2

[9] = tested on: Setaria viridis (SETVI); experiment: Post-emergence herbicidal evaluation, green foxtail; settings: rated 2 to 4 weeks after treatment
Experimental: as §2

[10] = tested on: Digitaria sanguinalis (DIGSA); experiment: Pre-emergence herbicidal evaluation, large crabgrass
Text: as §1

| Structure (SMILES) | HORVW rating ([1]; dose 0.013 kg/ha) | HORVW rating ([1]; dose 0.025 kg/ha) | HORVW rating ([1]; dose 0.1 kg/ha) | HORVW rating ([1]; dose 0.4 kg/ha) | GALAP rating ([3]; dose 0.013 kg/ha) | GALAP rating ([3]; dose 0.025 kg/ha) | GALAP rating ([3]; dose 0.1 kg/ha) | GALAP rating ([3]; dose 0.4 kg/ha) | MATIN rating ([4]; dose 0.013 kg/ha) | MATIN rating ([4]; dose 0.025 kg/ha) | MATIN rating ([4]; dose 0.1 kg/ha) | MATIN rating ([4]; dose 0.4 kg/ha) | SOLNI rating ([5]; dose 0.013 kg/ha) | SOLNI rating ([5]; dose 0.025 kg/ha) | SOLNI rating ([5]; dose 0.1 kg/ha) | SOLNI rating ([5]; dose 0.4 kg/ha) | ZEAMX rating ([6]; dose 0.03 kg/ha) | ZEAMX rating ([6]; dose 0.1 kg/ha) | ZEAMX rating ([6]; dose 0.4 kg/ha) | ECHCG rating ([8]; dose 0.03 kg/ha) | further results |
| --- | --- | --- | --- | --- | --- | --- | --- | --- | --- | --- | --- | --- | --- | --- | --- | --- | --- | --- | --- | --- | --- |
| Cc1cc(OC/C=C/C(F)(F)F)nc(Oc2cc(C(F)(F)F)nn2C)c1 [Example 1, (E)-2-(1-Methyl-3-trifluoromethylpyrazol-5-yloxy)-4-methyl-6-(4,4,4-trifluorobut-2-enyloxy)pyridine] | 1 (1 - Trace effect) | 2 (2 - Slight effect) | 5 (5 - Definite injury) | 5 (5 - Definite injury) | 1 (1 - Trace effect) | 2 (2 - Slight effect) | 7 (7 - Good herbicidal effect) | 9 (9 - Complete kill) | 8 (8 - Approaching complete kill) | 9 (9 - Complete kill) | 9 (9 - Complete kill) | 9 (9 - Complete kill) | 4 (4 - Injury) | 8 (8 - Approaching complete kill) | 9 (9 - Complete kill) | 9 (9 - Complete kill) | 2 (2 - Slight effect) | 5 (5 - Definite injury) | 6 (6 - Herbicidal effect) | 5 (5 - Definite injury) | CASOB rating ([2]; dose 0.013 kg/ha): 0 (0 - No effect); CASOB rating ([2]; dose 0.025 kg/ha): 9 (9 - Complete kill); CASOB rating ([2]; dose 0.1 kg/ha): 9 (9 - Complete kill); CASOB rating ([2]; dose 0.4 kg/ha): 9 (9 - Complete kill); CASOB rating ([7]; dose 0.03 kg/ha): 5 (5 - Definite injury); CASOB rating ([7]; dose 0.1 kg/ha): 5 (5 - Definite injury); CASOB rating ([7]; dose 0.4 kg/ha): 5 (5 - Definite injury); ECHCG rating ([8]; dose 0.1 kg/ha): 8 (8 - Approaching complete kill); ECHCG rating ([8]; dose 0.4 kg/ha): 8 (8 - Approaching complete kill); SETVI rating ([9]; dose 0.03 kg/ha): 5 (5 - Definite injury); SETVI rating ([9]; dose 0.1 kg/ha): 8 (8 - Approaching complete kill); SETVI rating ([9]; dose 0.4 kg/ha): 8 (8 - Approaching complete kill) |
| COc1cc(OCC(F)(F)C(F)F)nc(Oc2cc(C(F)(F)F)nn2C)c1 [Example 4, 2-(1-Methyl-3-trifluoromethylpyrazol-5-yloxy)-4-methoxy-6-(2,2,3,3-tetrafluoropropyloxy)pyridine] | 1 (1 - Trace effect) | 2 (2 - Slight effect) | 3 (3 - Moderate effect) | 4 (4 - Injury) | 1 (1 - Trace effect) | 3 (3 - Moderate effect) | 5 (5 - Definite injury) | 8 (8 - Approaching complete kill) | 8 (8 - Approaching complete kill) | 8 (8 - Approaching complete kill) | 9 (9 - Complete kill) | 9 (9 - Complete kill) | 6 (6 - Herbicidal effect) | 8 (8 - Approaching complete kill) | 8 (8 - Approaching complete kill) | 8 (8 - Approaching complete kill) | 2 (2 - Slight effect) | 3 (3 - Moderate effect) | 5 (5 - Definite injury) | 6 (6 - Herbicidal effect) | CASOB rating ([2]; dose 0.013 kg/ha): 3 (3 - Moderate effect); CASOB rating ([2]; dose 0.025 kg/ha): 4 (4 - Injury); CASOB rating ([2]; dose 0.1 kg/ha): 7 (7 - Good herbicidal effect); CASOB rating ([2]; dose 0.4 kg/ha): 9 (9 - Complete kill); ECHCG rating ([8]; dose 0.1 kg/ha): 8 (8 - Approaching complete kill); ECHCG rating ([8]; dose 0.4 kg/ha): 9 (9 - Complete kill); SETVI rating ([9]; dose 0.03 kg/ha): 6 (6 - Herbicidal effect); SETVI rating ([9]; dose 0.1 kg/ha): 8 (8 - Approaching complete kill); SETVI rating ([9]; dose 0.4 kg/ha): 9 (9 - Complete kill) |
| Cc1cc(OC=CCC(F)(F)F)nc(Oc2cc(C(F)(F)F)nn2C)c1 [Example 2, 2-(1-Methyl-3-trifluoromethylpyrazol-5-yloxy)-4-methyl-6-(4,4,4-trifluorobut-1-enyloxy)pyridine] | 0 (0 - No effect) | 0 (0 - No effect) | 3 (3 - Moderate effect) | 5 (5 - Definite injury) | 0 (0 - No effect) | 0 (0 - No effect) | 2 (2 - Slight effect) | 9 (9 - Complete kill) | 4 (4 - Injury) | 6 (6 - Herbicidal effect) | 8 (8 - Approaching complete kill) | 9 (9 - Complete kill) | 0 (0 - No effect) | 1 (1 - Trace effect) | 8 (8 - Approaching complete kill) | 9 (9 - Complete kill) | 2 (2 - Slight effect) | 4 (4 - Injury) | 5 (5 - Definite injury) | 2 (2 - Slight effect) | CASOB rating ([2]; dose 0.013 kg/ha): 0 (0 - No effect); CASOB rating ([2]; dose 0.025 kg/ha): 1 (1 - Trace effect); CASOB rating ([2]; dose 0.1 kg/ha): 9 (9 - Complete kill); CASOB rating ([2]; dose 0.4 kg/ha): 9 (9 - Complete kill); ECHCG rating ([8]; dose 0.1 kg/ha): 5 (5 - Definite injury); ECHCG rating ([8]; dose 0.4 kg/ha): 7 (7 - Good herbicidal effect); SETVI rating ([9]; dose 0.03 kg/ha): 4 (4 - Injury); SETVI rating ([9]; dose 0.1 kg/ha): 8 (8 - Approaching complete kill); SETVI rating ([9]; dose 0.4 kg/ha): 8 (8 - Approaching complete kill) |
| Cc1cc(OCC=C(Cl)Cl)nc(Oc2cc(C(F)(F)F)nn2C)c1 [Example 12] | 3 (3 - Moderate effect) | 4 (4 - Injury) | 5 (5 - Definite injury) | 8 (8 - Approaching complete kill) | 1 (1 - Trace effect) | 4 (4 - Injury) | 8 (8 - Approaching complete kill) | 9 (9 - Complete kill) | 8 (8 - Approaching complete kill) | 9 (9 - Complete kill) | 9 (9 - Complete kill) | 9 (9 - Complete kill) | 5 (5 - Definite injury) | 8 (8 - Approaching complete kill) | 8 (8 - Approaching complete kill) | 8 (8 - Approaching complete kill) | 2 (2 - Slight effect) | 4 (4 - Injury) | 6 (6 - Herbicidal effect) | 9 (9 - Complete kill) | DIGSA rating ([10]; dose 0.013 kg/ha): 9 (9 - Complete kill); DIGSA rating ([10]; dose 0.025 kg/ha): 9 (9 - Complete kill); DIGSA rating ([10]; dose 0.1 kg/ha): 9 (9 - Complete kill); DIGSA rating ([10]; dose 0.4 kg/ha): 9 (9 - Complete kill); CASOB rating ([7]; dose 0.03 kg/ha): 8 (8 - Approaching complete kill); CASOB rating ([7]; dose 0.1 kg/ha): 8 (8 - Approaching complete kill); CASOB rating ([7]; dose 0.4 kg/ha): 8 (8 - Approaching complete kill); ECHCG rating ([8]; dose 0.1 kg/ha): 9 (9 - Complete kill); ECHCG rating ([8]; dose 0.4 kg/ha): 9 (9 - Complete kill); SETVI rating ([9]; dose 0.03 kg/ha): 9 (9 - Complete kill); SETVI rating ([9]; dose 0.1 kg/ha): 9 (9 - Complete kill); SETVI rating ([9]; dose 0.4 kg/ha): 9 (9 - Complete kill) |
| CC(Cl)=CCOc1cc(C)cc(Oc2cc(C(F)(F)F)nn2C)n1 [Example 11] | 3 (3 - Moderate effect) | 3 (3 - Moderate effect) | 3 (3 - Moderate effect) | 6 (6 - Herbicidal effect) | 1 (1 - Trace effect) | 3 (3 - Moderate effect) | 6 (6 - Herbicidal effect) | 8 (8 - Approaching complete kill) | 9 (9 - Complete kill) | 9 (9 - Complete kill) | 9 (9 - Complete kill) | 9 (9 - Complete kill) | 5 (5 - Definite injury) | 7 (7 - Good herbicidal effect) | 8 (8 - Approaching complete kill) | 9 (9 - Complete kill) | 2 (2 - Slight effect) | 5 (5 - Definite injury) | 5 (5 - Definite injury) | 8 (8 - Approaching complete kill) | DIGSA rating ([10]; dose 0.013 kg/ha): 8 (8 - Approaching complete kill); DIGSA rating ([10]; dose 0.025 kg/ha): 8 (8 - Approaching complete kill); DIGSA rating ([10]; dose 0.1 kg/ha): 9 (9 - Complete kill); DIGSA rating ([10]; dose 0.4 kg/ha): 9 (9 - Complete kill); ECHCG rating ([8]; dose 0.1 kg/ha): 8 (8 - Approaching complete kill); ECHCG rating ([8]; dose 0.4 kg/ha): 8 (8 - Approaching complete kill); SETVI rating ([9]; dose 0.03 kg/ha): 5 (5 - Definite injury); SETVI rating ([9]; dose 0.1 kg/ha): 6 (6 - Herbicidal effect); SETVI rating ([9]; dose 0.4 kg/ha): 8 (8 - Approaching complete kill) |
